Legend:
[1] = Penetration of P11-4 (200 ppm, spiked with 10 ppm ATTO647-P11-4, 25 mM TRIS) into artificial subsurface lesions, confocal microscopy; set-up: species or system human; key to presence of fluorescent P11-4 in lesion, 6 d / presence of fluorescent P11-4 in lesion, 1 min / presence of fluorescent P11-4 in lesion, 2 min / presence of fluorescent P11-4 in lesion, 5 min / presence of fluorescent P11-4 in lesion, 4 d: 1 = no or low presence; 4 = high presence of fluorescent P11-4; Average presence of P11-4: scale not given here; settings: for presence of fluorescent P11-4 in lesion, 1 min: 1 min incubation; for presence of fluorescent P11-4 in lesion, 2 min: 2 min incubation; for presence of fluorescent P11-4 in lesion, 5 min: 5 min incubation; for presence of fluorescent P11-4 in lesion, 6 d: washing in H2O; for presence of fluorescent P11-4 in lesion, 4 d: washing in Remin. buffer
Procedure: Creation of artificial lesions on extracted human molar teeth was performed as described by Lo et al. 2010 (J Dent. 38(4):352-359). To define the position of the demineralized subsurface area (i.e., artificial carious lesion or white spot), the tooth was covered with colourless nail varnish, leaving a window of approximately 4×4 mm. The tooth was placed in demineralization buffer (2.2 mM CaCl2, 2.2 mM NaH2PO4, 50 mM acetic acid; pH adjusted with 1 M KOH to 4.4) for 3 d at 37° C. To ensure that all pores are open, as in a typical active caries lesion, the resulting subsurface lesions were treated with 10 μL of 2% NaClO (incubation for 1 min), rinsed, and air-dried at room temperature.
• A 200 ppm (i.e., 200 μg/ml) solution of P11-4 (SEQ ID NO: 2), spiked with 10 ppm ATTO647-P11-4 (fluorescence labelled P11-4 (SEQ ID NO: 6): Ac-QQRFEWEFEQQSGSGC-(ATTO647)-NH2), i.e., 1:20, in 25 mM TRIS buffer was prepared at different pH, in particular, at 8.4 or 8.5 or 6.3, 6.5 or 6.8) • As specified in the table below, tooth were optionally pretreated, e.g., by incubation in human saliva for one day (about 24 hours), optionally followed by 5 min sonication (258 hz with a sonic toothbrush, Sonicare Diamond Clean® (Philips)) or by immersion in 2% NaClO for 1 min. • Tooth were immersed in the P11-4 solution for a defined period of time, 1, 2 or 5 min, and then removed and washed in water for 10 min or in remineralization buffer (2 mM Ca(NO3), 1.2 mM KHPO4, and 60 mM Tris/HCl, pH adjusted to 7.4 with 1 M KOH) for 4 days and/or 6 days. • Confocal assessment after 1, 2 or 5 min incubation was carried out while the teeth were in P11-4 solution, and optionally, after washing in water or in remineralization buffer after 10 min or 4 or 6 days. c) Confocal Microscopy
Samples were placed in a μ-slide I (ibidi, Martinsried) in dest. water and analyzed by a confocal laser microscope (Olympus IX81). The recorded stack of four 2-dimensional images each projected the lesion volume of 51.4 μm thickness, giving a total assessment depth of 205 μm (objective: UPLSAPO 20×/NA 0.75; helium-neon gas laser; excitation: 633 nm and emission: 668 nm). Images were analyzed by Olympus software (FluoView FV1000).

[2] = pH at which the peptide starts to undergo self-assembly; format: physicochemical; settings: in solution
Text: As used herein, the pH at which the self-assembling peptide starts to undergo self-assembly refers to the pH below which a significant extent of self-assembly of the peptides in solution is observed, which means that at least about 25%, about 30%, about 35%, about 40%, about 45%, about 50%, about 55%, about 60%, about 65%, about 70%, about 75%, about 80%, about 85%, about 90%, about 95%, about 99% or even about 100% of the peptides found in the dental care product are assembled. In a preferred embodiment, at least about 25% of the peptides found in the dental care product are assembled below the pH at which the peptide starts to undergo self-assembly.
Further, the skilled person is aware of numerous methods to determine the pH at which a peptide of the present invention will start self-assembly at a given ionic strength. Suitable methods are denoted e.g. in a publication by Aggeli et al. (2003, J Am Chem Soc, 125, 9619-9628).

[3] = 200 ppm in a slightly basic buffer
[4] = tooth 1, pH 8.4, no pretreatment
[5] = tooth 2, pH 8.4, no pretreatment
[6] = tooth 3, pH 6.3, saliva pre-incubation
[7] = tooth 4, pH 6.3, no pretreatment
[8] = tooth 5, pH 8.5, saliva pre-incubation
[9] = tooth 10, pH 8.5, no pretreatment
[10] = tooth 11, pH 8.5, saliva pre-incubation
[11] = tooth 12, pH 6.5, no pretreatment
[12] = tooth 13, pH 6.8, saliva pre-incubation
[13] = tooth ZR1, pH 8.5, sonification pretreatment
[14] = tooth ZR2, pH 8.5, saliva pre-incubation then NaClO
[15] = tooth ZR3, pH 8.5, saliva pre-incubation then sonification
[16] = tooth ZR4, pH 8.5, saliva pre-incubation

## Ac-QQRFEWEFEQQSGSGC-(ATTO647)-NH2 (Ac-QQRFEWEFEQQSGSGC(ATTO647)-NH2) [fluorescent P11-4]
[1]; [3]
  diffusion of monomeric peptide into artificial carious lesions: can diffuse into the artificial carious lesions and form a stable network there
  peptide detected outside the lesions: No significant amounts
[1]; pH 8.5, 1, 2, or 5 min, teeth 11, 5 and ZR4, versus no pre-incubation
  effect of pre-incubation with human saliva (pellicle) on presence of fluorescent peptide on the tooth or in the lesions: significantly lower presence
[1]; [4]
  Average presence of P11-4: 2.7
  presence of fluorescent P11-4 in lesion, 1 min: 4
  presence of fluorescent P11-4 in lesion, 2 min: 2
  presence of fluorescent P11-4 in lesion, 5 min: 2
[1]; [5]
  presence of fluorescent P11-4 in lesion, 1 min: 1
  presence of fluorescent P11-4 in lesion, 2 min: 3
  presence of fluorescent P11-4 in lesion, 5 min: 3
  presence of fluorescent P11-4 in lesion, 6 d: 1
[1]; tooth 2, pH 8.4, no pretreatment, H2O wash
  Average presence of P11-4: 2.0
[1]; [6]
  presence of fluorescent P11-4 in lesion, 1 min: 1
  presence of fluorescent P11-4 in lesion, 2 min: 1
  presence of fluorescent P11-4 in lesion, 5 min: 1
  presence of fluorescent P11-4 in lesion, 6 d: 1
[1]; tooth 3, pH 6.3, saliva pre-incubation, H2O wash
  Average presence of P11-4: 1.0
[1]; [7]
  presence of fluorescent P11-4 in lesion, 1 min: 1
  presence of fluorescent P11-4 in lesion, 2 min: 1
  presence of fluorescent P11-4 in lesion, 5 min: 2
  presence of fluorescent P11-4 in lesion, 6 d: 1
[1]; tooth 4, pH 6.3, no pretreatment, H2O wash
  Average presence of P11-4: 1.3
[1]; [8]
  Average presence of P11-4: 1.3
  presence of fluorescent P11-4 in lesion, 1 min: 2
  presence of fluorescent P11-4 in lesion, 2 min: 1
  presence of fluorescent P11-4 in lesion, 5 min: 1
[1]; [9]
  presence of fluorescent P11-4 in lesion, 1 min: 1
  presence of fluorescent P11-4 in lesion, 2 min: 4
  presence of fluorescent P11-4 in lesion, 5 min: 4
  presence of fluorescent P11-4 in lesion, 4 d: 2
[1]; tooth 10, pH 8.5, no pretreatment, Remin. buffer wash
  Average presence of P11-4: 2.8
[1]; [10]
  presence of fluorescent P11-4 in lesion, 1 min: 1
  presence of fluorescent P11-4 in lesion, 2 min: 1
  presence of fluorescent P11-4 in lesion, 5 min: 1
  presence of fluorescent P11-4 in lesion, 4 d: 1
[1]; tooth 11, pH 8.5, saliva pre-incubation, Remin. buffer wash
  Average presence of P11-4: 1.0
[1]; [11]
  presence of fluorescent P11-4 in lesion, 1 min: 2
  presence of fluorescent P11-4 in lesion, 2 min: 3.5
  presence of fluorescent P11-4 in lesion, 5 min: 2
  presence of fluorescent P11-4 in lesion, 4 d: 1
[1]; tooth 12, pH 6.5, no pretreatment, Remin. buffer wash
  Average presence of P11-4: 2.1
[1]; [12]
  presence of fluorescent P11-4 in lesion, 1 min: 1
  presence of fluorescent P11-4 in lesion, 2 min: 2
  presence of fluorescent P11-4 in lesion, 5 min: 2
  presence of fluorescent P11-4 in lesion, 4 d: 1
[1]; tooth 13, pH 6.8, saliva pre-incubation, Remin. buffer wash
  Average presence of P11-4: 1.5
[1]; [13]
  Average presence of P11-4: 4.0
  presence of fluorescent P11-4 in lesion, 1 min: 4
  presence of fluorescent P11-4 in lesion, 2 min: 4
  presence of fluorescent P11-4 in lesion, 5 min: 4
[1]; [14]
  Average presence of P11-4: 3.7
  presence of fluorescent P11-4 in lesion, 1 min: 3
  presence of fluorescent P11-4 in lesion, 2 min: 4
  presence of fluorescent P11-4 in lesion, 5 min: 4
[1]; [15]
  Average presence of P11-4: 2.3
  presence of fluorescent P11-4 in lesion, 1 min: 1
  presence of fluorescent P11-4 in lesion, 2 min: 3
  presence of fluorescent P11-4 in lesion, 5 min: 3
[1]; [16]
  Average presence of P11-4: 1.3
  presence of fluorescent P11-4 in lesion, 1 min: 1
  presence of fluorescent P11-4 in lesion, 2 min: 1
  presence of fluorescent P11-4 in lesion, 5 min: 2

## CH3CO-QQRFEWEFEQQ-NH2 (Ac-QQRFEWEFEQQ-NH2) [terminally modified P11-4]
[2]
  pH at which the self-assembling peptides start to undergo self-assembly: about 7.5
